According to ChEMBL document CHEMBL1158340, “Organoiodine (III)-mediated synthesis of 3-aryl/heteroaryl-5,7-dimethyl-1,2,4-triazolo[4,3-c]pyrimidines as antibacterial agents” (2009):
≈ marks a conversion by molar mass, not a printed value. Calls of active or inactive are those of the source. The rule behind the calls is not given here.

Columns and labels:
Format in all cases: functional
[1] = system: Bacillus subtilis; experiment: Antibacterial activity against Bacillus subtilis MTCC 8509 after 24 hrs; settings: MTCC 8509, 24 h
[2] = system: Pseudomonas putida; experiment: Antibacterial activity against Pseudomonas putida MTCC 121 after 24 hrs; settings: MTCC 121, 24 h
[3] = system: Geobacillus stearothermophilus; experiment: Antibacterial activity against Bacillus stearothermophilus MTCC 8508 at 50 ug/mL by agar well diffusion method; settings: for zone of inhibition at 50 µg/mL: read-out: DIZ
[4] = system: Geobacillus stearothermophilus; experiment: Antibacterial activity against Bacillus stearothermophilus MTCC 8508 at 100 ug/mL by agar well diffusion method; settings: read-out: DIZ
[5] = system: Escherichia coli; experiment: Antibacterial activity against Escherichia coli MTCC 51 after 24 hrs; settings: MTCC 51, 24 h
[6] = system: Escherichia coli; experiment: Antibacterial activity against Escherichia coli MTCC 51 at 100 ug/mL by agar well diffusion method; settings: read-out: DIZ
[7] = system: Geobacillus stearothermophilus; experiment: Antibacterial activity against Bacillus stearothermophilus MTCC 8508 at 10 ug/mL by agar well diffusion method; settings: for zone of inhibition at 10 µg/mL: read-out: DIZ
[8] = system: Bacillus subtilis; experiment: Antibacterial activity against Bacillus subtilis MTCC 8509 at 50 ug/mL by agar well diffusion method; settings: for zone of inhibition at 50 µg/mL: read-out: DIZ
[9] = system: Bacillus subtilis; experiment: Antibacterial activity against Bacillus subtilis MTCC 8509 at 10 ug/mL by agar well diffusion method; settings: for zone of inhibition at 10 µg/mL: read-out: DIZ
[10] = system: Geobacillus stearothermophilus; experiment: Antibacterial activity against Bacillus stearothermophilus MTCC 8508 after 24 hrs; settings: MTCC 8508, 24 h
[11] = system: Pseudomonas putida; experiment: Antibacterial activity against Pseudomonas putida MTCC 121 at 50 ug/mL by agar well diffusion method; settings: read-out: DIZ
[12] = system: Escherichia coli; experiment: Antibacterial activity against Escherichia coli MTCC 51 at 10 ug/mL by agar well diffusion method; settings: for zone of inhibition at 10 µg/mL: read-out: DIZ
[13] = system: Escherichia coli; experiment: Antibacterial activity against Escherichia coli MTCC 51 at 50 ug/mL by agar well diffusion method; settings: for zone of inhibition at 50 µg/mL: read-out: DIZ
[14] = system: Bacillus subtilis; experiment: Antibacterial activity against Bacillus subtilis MTCC 8509 at 100 ug/mL by agar well diffusion method; settings: read-out: DIZ
[15] = system: Pseudomonas putida; experiment: Antibacterial activity against Pseudomonas putida MTCC 121 at 100 ug/mL by agar well diffusion method; settings: read-out: DIZ
[16] = system: Pseudomonas putida; experiment: Antibacterial activity against Pseudomonas putida MTCC 121 at 10 ug/mL by agar well diffusion method; settings: for zone of inhibition at 10 µg/mL: read-out: DIZ

Structure (SMILES) | MIC [1] [µg/mL] | MIC [2] [µg/mL] | zone of inhibition at 50 µg/mL [3] [mm] | zone of inhibition at 100 µg/mL [4] [mm] | MIC [5] [µg/mL] | zone of inhibition at 100 µg/mL [6] [mm] | Activity [9] | MIC [10] [µg/mL] | zone of inhibition at 50 µg/mL [11] [mm] | zone of inhibition at 100 µg/mL [14] [mm] | zone of inhibition at 100 µg/mL [15] [mm] | Activity [16] | zone of inhibition at 50 µg/mL [8] [mm] | zone of inhibition at 50 µg/mL [13] [mm] | zone of inhibition at 10 µg/mL [7] [mm] | zone of inhibition at 10 µg/mL [9] [mm] | zone of inhibition at 10 µg/mL [12] [mm] | zone of inhibition at 10 µg/mL [16] [mm] | further results
Cc1cc2nnc(-c3ccc(Cl)cc3)n2c(C)n1 | > 250 | > 250 | 11.8 | 18.7 | > 250 | 10.7 | inactive | 125 (≈ 483 µM) | 8.33 | 11.3 | 14.6 | inactive | – | – | – | – | – | – | Activity [7]: inactive; Activity [8]: inactive; Activity [12]: inactive; Activity [13]: inactive
Cc1cc2nnc(-c3ccc([N+](=O)[O-])cc3)n2c(C)n1 | 250 (≈ 928 µM) | 125 (≈ 464 µM) | 10.3 | 16.7 | 250 (≈ 928 µM) | 13.7 | inactive | > 250 | 12.3 | 14.3 | 19.7 | inactive | 9.66 | 8.33 | – | – | – | – | Activity [7]: inactive; Activity [12]: inactive
Cc1cc2nnc(-c3cccnc3)n2c(C)n1 | 4 (≈ 17.8 µM) | 2 (≈ 8.88 µM) | 39.7 | 56.3 | 8 (≈ 35.5 µM) | 57.3 | – | 8 (≈ 35.5 µM) | 59.3 | 65.7 | 69.7 | – | 46.3 | 39.3 | 25.3 | 29.3 | 25.7 | 36.7 | –
Cc1cc2nnc(-c3ccc(Cl)cc3Cl)n2c(C)n1 | 4 (≈ 13.6 µM) | 4 (≈ 13.6 µM) | 48.3 | 66.3 | 1 (≈ 3.41 µM) | 75.3 | – | 4 (≈ 13.6 µM) | 49.7 | 67.3 | 67.7 | – | 47.7 | 63.7 | 29.7 | 30.7 | 37.3 | 29.3 | –
Cc1cc2nnc(-c3ccccc3)n2c(C)n1 | > 250 | > 250 | – | 10.7 | > 250 | 11.3 | inactive | > 250 | 8.33 | 13.3 | 12.7 | inactive | 8.34 | – | – | – | – | – | Activity [3]: inactive; Activity [7]: inactive; Activity [12]: inactive; Activity [13]: inactive
CN[C@@H]1[C@H](O[C@H]2[C@H](O[C@H]3[C@H](O)[C@@H](O)[C@H](N=C(N)N)[C@@H](O)[C@@H]3N=C(N)N)O[C@@H](C)[C@]2(O)C=O)O[C@@H](CO)[C@H](O)[C@H]1O [STREPTOMYCIN] | 2 (≈ 3.44 µM) | 4 (≈ 6.88 µM) | 49.2 | 67.2 | 4 (≈ 6.88 µM) | 69.4 | – | 2 (≈ 3.44 µM) | 48.2 | 73.2 | 72.2 | – | 57.4 | 49.4 | 33.2 | 36.4 | 26.4 | 38.2 | –
COc1ccc(OC)c(-c2nnc3cc(C)nc(C)n23)c1 | > 250 | > 250 | 8.33 | 13.7 | 125 (≈ 440 µM) | 19.3 | inactive | > 250 | 9.66 | 11.3 | 13.7 | inactive | – | 10.7 | – | – | – | – | Activity [7]: inactive; Activity [8]: inactive; Activity [12]: inactive
Cc1cc2nnc(-c3cccs3)n2c(C)n1 | > 250 | > 250 | 16.7 | 25.7 | 64 (≈ 278 µM) | 26.3 | inactive | 64 (≈ 278 µM) | 8.33 | 13.7 | 12.3 | inactive | 8.34 | 18.7 | 9.74 | – | 10.3 | – | –
COc1cc(O)ccc1-c1nnc2cc(C)nc(C)n12 | 8 (≈ 29.6 µM) | 2 (≈ 7.4 µM) | 46.7 | 66.3 | 4 (≈ 14.8 µM) | 66.7 | – | 4 (≈ 14.8 µM) | 49.3 | 61.7 | 72.7 | – | 42.7 | 46.3 | 30.7 | 27.3 | 29.3 | 32.7 | –
O=C(N[C@H](CO)[C@H](O)c1ccc([N+](=O)[O-])cc1)C(Cl)Cl [CHLORAMPHENICOL] | 2 (≈ 6.19 µM) | 2 (≈ 6.19 µM) | 53.2 | 77.2 | 4 (≈ 12.4 µM) | 75.4 | – | 2 (≈ 6.19 µM) | 53.4 | 74.2 | 71.2 | – | 57.2 | 50.4 | 35.3 | 36.3 | 30.3 | 29.3 | –
COc1ccc(-c2nnc3cc(C)nc(C)n23)cc1 | 8 (≈ 31.5 µM) | 16 (≈ 62.9 µM) | 20.7 | 41.3 | 16 (≈ 62.9 µM) | 40.7 | – | 16 (≈ 62.9 µM) | 20.3 | 59.7 | 40.7 | – | 39.7 | 21.3 | 12.3 | 27.3 | 12.3 | 11.7 | –
Cc1cc2nnc(-c3ccc(Br)cc3)n2c(C)n1 | 8 (≈ 26.4 µM) | 4 (≈ 13.2 µM) | 41.7 | 60.7 | 16 (≈ 52.8 µM) | 47.3 | – | 8 (≈ 26.4 µM) | 48.7 | 59.3 | 66.7 | – | 40.7 | 31.7 | 26.7 | 27.7 | 23.3 | 28.3 | –
Cc1ccc(-c2nnc3cc(C)nc(C)n23)cc1 | 16 (≈ 67.1 µM) | 8 (≈ 33.6 µM) | 19.7 | 30.3 | 16 (≈ 67.1 µM) | 40.2 | – | 32 (≈ 134 µM) | 40.3 | 42.1 | 59.7 | – | 21.3 | 22.2 | 9.74 | 12.3 | 11.7 | 26.7 | –
Cc1cc2nnc(-c3ccc(F)cc3)n2c(C)n1 | 16 (≈ 66 µM) | 32 (≈ 132 µM) | 23.4 | 41.8 | 32 (≈ 132 µM) | 26.4 | – | 16 (≈ 66 µM) | 15.3 | 41.7 | 23.2 | – | 22.3 | 14.3 | 10.1 | 13.7 | 11.3 | 9.67 | –
